Active and inactive are the calls of the source. No cut-off for these calls is given here.
How the values were obtained:
B16-F10 = assay: Cytotoxicity in mouse B16/F10 cells assessed as reduction in cell viability incubated for 48 hrs by MTT assay; format: functional, cell-based; conditions: B16-F10, 48 h
MDA-MB-231 = assay: Cytotoxicity in human MDA-MB-231 cells assessed as reduction in cell viability incubated for 48 hrs by MTT assay; format: functional, cell-based; conditions: MDA-MB-231, 48 h
MCF7 [1] = assay: Cytotoxicity in human MCF7 cells assessed as reduction in cell viability incubated for 48 hrs by MTT assay; format: functional, cell-based; conditions: MCF7, 48 h
A549 = assay: Cytotoxicity in human A549 cells assessed as reduction in cell viability incubated for 48 hrs by MTT assay; format: functional, cell-based; conditions: A549, 48 h
DU-145 = assay: Cytotoxicity in human DU145 cells assessed as reduction in cell viability incubated for 48 hrs by MTT assay; format: functional, cell-based; conditions: DU-145, 48 h
MCF7 [2] = assay: Induction of apoptotic morphological changes in human MCF7 cells assessed as induction of DNA fragmentation at 8 uM incubated for 48 hrs by AO/EB staining staining based fluorescence microscopy; format: functional, cell-based
MCF7 [3] = assay: Induction of apoptosis in human MCF7 cells assessed as early apoptosis cells level at 8 uM incubated for 48 hrs by Annexin V and propidium iodide staining based flow cytometry (reference value: 11.54%); format: functional
MCF7 [4] = assay: Induction of apoptotic nuclear morphological changes in human MCF7 cells assessed as induction of horse shoe shaped nucleus at 12 uM incubated for 48 hrs by DAPI nuclear staining based fluorescence microscopy; format: functional, cell-based
MCF7 [5] = assay: Induction of cell cycle arrest in human MCF7 cells assessed as accumulation at subG1 phase at 4 uM incubated for 48 hrs by propidium iodide staining based flow cytometry (reference value: 0.88%); format: functional
MCF7 [6] = assay: Induction of apoptosis in human MCF7 cells assessed as early apoptosis cells level at 4 uM incubated for 48 hrs by Annexin V and propidium iodide staining based flow cytometry (reference value: 11.54%); format: functional
MCF7 [7] = assay: Induction of late apoptosis in human MCF7 cells at 12 uM incubated for 48 hrs by AO/EB staining staining based fluorescence microscopy; format: functional, cell-based
L132 = assay: Cytotoxicity in human L-132 cells assessed as reduction in cell viability incubated for 48 hrs by MTT assay; format: cell-based; conditions: L132, 48 h
MCF7 [8] = assay: Induction of apoptotic nuclear morphological changes in human MCF7 cells assessed as induction of cell shrinkage and round shape cells at 4 to 8 uM incubated for 48 hrs by DAPI nuclear staining based fluorescence microscopy; format: functional
MCF7 [9] = assay: Induction of apoptosis in human MCF7 cells assessed as viable cells level at 8 uM incubated for 48 hrs by Annexin V and propidium iodide staining based flow cytometry (reference value: 80.6%); format: functional
MCF7 [10] = assay: Induction of cell cycle arrest in human MCF7 cells assessed as accumulation at G0/G1 phase at 4 uM incubated for 48 hrs by propidium iodide staining based flow cytometry (reference value: 53.01%); format: functional
MCF7 [11] = assay: Induction of apoptotic morphological changes in human MCF7 cells assessed as induction of membrane blebbing at 8 uM incubated for 48 hrs by AO/EB staining staining based fluorescence microscopy; format: functional, cell-based
MCF7 [12] = assay: Induction of apoptotic nuclear morphological changes in human MCF7 cells incubated for 48 hrs by DAPI nuclear staining based fluorescence microscopy; format: functional, cell-based
MCF7 [13] = assay: Induction of apoptosis in human MCF7 cells assessed as viable cells level at 4 uM incubated for 48 hrs by Annexin V and propidium iodide staining based flow cytometry (reference value: 80.6%); format: functional
MCF7 [14] = assay: Induction of cell cycle arrest in human MCF7 cells assessed as accumulation at subG1 phase at 8 uM incubated for 48 hrs by propidium iodide staining based flow cytometry (reference value: 0.88%); format: functional
MCF7 [15] = assay: Induction of apoptotic morphological changes in human MCF7 cells assessed as induction of membrane blebbing at 4 uM incubated for 48 hrs by AO/EB staining staining based fluorescence microscopy; format: functional, cell-based
MCF7 [16] = assay: Induction of apoptosis in human MCF7 cells assessed as necrotic cells level at 4 uM incubated for 48 hrs by Annexin V and propidium iodide staining based flow cytometry (reference value: 0.46%); format: functional
MCF7 [17] = assay: Inhibition of colony formation in human MCF7 cells assessed as reduction in colony count incubated for 24 hrs by crystal violet staining based clonogenic cell reproduction assay; format: functional
MCF7 [18] = assay: Induction of apoptosis in human MCF7 cells assessed as early apoptosis cells level at 12 uM incubated for 48 hrs by Annexin V and propidium iodide staining based flow cytometry (reference value: 11.54%); format: functional
MCF7 [19] = assay: Induction of apoptosis in human MCF7 cells incubated for 48 hrs by Annexin V and propidium iodide staining based flow cytometry (reference value: 7.4%); format: functional, cell-based
MCF7 [20] = assay: Induction of apoptotic nuclear morphological changes in human MCF7 cells assessed as induction of DNA fragmentation at 12 uM incubated for 48 hrs by DAPI nuclear staining based fluorescence microscopy; format: functional, cell-based
[21] = Selectivity index, ratio of IC50 for cytotoxicity in human L-132 cells to IC50 for cytotoxicity in human MCF7 cells; format: toxicity, cell-based; conditions: L-132 cells and MCF7 cells, read-out: Ratio IC50
MCF7 [22] = assay: Induction of cell cycle arrest in human MCF7 cells assessed as accumulation at G0/G1 phase at 8 uM incubated for 48 hrs by propidium iodide staining based flow cytometry (reference value: 53.01%); format: functional
MCF7 [23] = assay: Induction of apoptosis in human MCF7 cells assessed as late apoptosis cells level at 4 uM incubated for 48 hrs by Annexin V and propidium iodide staining based flow cytometry (reference value: 7.4%); format: functional
MCF7 [24] = assay: Induction of apoptosis in human MCF7 cells assessed as viable cells level at 12 uM incubated for 48 hrs by Annexin V and propidium iodide staining based flow cytometry (reference value: 80.6%); format: functional
MCF7 [25] = assay: Induction of cell cycle arrest in human MCF7 cells assessed as accumulation at S phase at 8 uM incubated for 48 hrs by propidium iodide staining based flow cytometry (reference value: 12.28%); format: functional
MCF7 [26] = assay: Induction of apoptosis in human MCF7 cells assessed as late apoptosis cells level at 8 uM incubated for 48 hrs by Annexin V and propidium iodide staining based flow cytometry (reference value: 7.4%); format: functional
MCF7 [27] = assay: Induction of cell cycle arrest in human MCF7 cells assessed as accumulation at S phase at 4 uM incubated for 48 hrs by propidium iodide staining based flow cytometry (reference value: 12.28%); format: functional
MCF7 [28] = assay: Induction of cell cycle arrest in human MCF7 cells assessed as accumulation at G2/M phase at 8 uM incubated for 48 hrs by propidium iodide staining based flow cytometry (reference value: 32.51%); format: functional
MCF7 [29] = assay: Induction of apoptosis in human MCF7 cells assessed as necrotic cells level at 8 uM incubated for 48 hrs by Annexin V and propidium iodide staining based flow cytometry (reference value: 0.46%); format: functional
MCF7 [30] = assay: Induction of cell cycle arrest in human MCF7 cells assessed as accumulation at G2/M phase at 4 uM incubated for 48 hrs by propidium iodide staining based flow cytometry (reference value: 32.51%); format: functional
MCF7 [31] = assay: Induction of apoptosis in human MCF7 cells assessed as necrotic cells level at 12 uM incubated for 48 hrs by Annexin V and propidium iodide staining based flow cytometry (reference value: 0.46%); format: functional
MCF7 [32] = assay: Induction of apoptotic morphological changes in human MCF7 cells assessed as induction of chromatin condensation at 8 uM incubated for 48 hrs by AO/EB staining staining based fluorescence microscopy; format: functional, cell-based
MCF7 [33] = assay: Induction of apoptosis in human MCF7 cells assessed as late apoptosis cells level at 12 uM incubated for 48 hrs by Annexin V and propidium iodide staining based flow cytometry (reference value: 7.4%); format: functional

COc1ccc(OC)c(CN(C(=S)Nc2ccc(C)cc2)n2cnnc2)c1
IC50 (B16-F10): 20.7 µM
IC50 (MDA-MB-231): > 50 µM
IC50 (MCF7 [1]): > 50 µM
IC50 (A549): 17.4 µM
IC50 (DU-145): 20.9 µM

COc1ccc(CN(C(=S)Nc2cc(C(F)(F)F)cc(C(F)(F)F)c2)n2cnnc2)cc1OC
IC50 (B16-F10): 8.54 µM
IC50 (MDA-MB-231): 25.3 µM
IC50 (MCF7 [1]): 15.5 µM
IC50 (A549): 16.2 µM
IC50 (DU-145): 26.4 µM

COc1ccc(CN(C(=S)Nc2ccc(C)cc2)n2cnnc2)cc1OC
IC50 (B16-F10): 29.9 µM
IC50 (MDA-MB-231): > 50 µM
IC50 (MCF7 [1]): > 50 µM
IC50 (A549): 22.2 µM
IC50 (DU-145): 26.3 µM

O=C(NC1CCCCC1)N(Cc1ccccn1)n1cnnc1
IC50 (B16-F10): 35.8 µM
IC50 (MDA-MB-231): 44.1 µM
IC50 (MCF7 [1]): 46.9 µM
IC50 (A549): > 50 µM
IC50 (DU-145): > 50 µM

Cc1ccc(NC(=O)N(Cc2ccccn2)n2cnnc2)cc1
IC50 (B16-F10): 35.2 µM
IC50 (MDA-MB-231): 39.5 µM
IC50 (MCF7 [1]): 38.9 µM
IC50 (A549): 21.9 µM
IC50 (DU-145): 21.5 µM

COc1ccc(CN(C(=O)Nc2ccc(C#N)cc2)n2cnnc2)cc1OC
IC50 (B16-F10): > 50 µM
IC50 (MDA-MB-231): > 50 µM
IC50 (MCF7 [1]): > 50 µM
IC50 (A549): > 50 µM
IC50 (DU-145): 24.1 µM

COc1cc(CN(C(=O)Nc2ccc(C#N)cc2)n2cnnc2)cc(OC)c1OC
IC50 (B16-F10): 21 µM
IC50 (MDA-MB-231): > 50 µM
IC50 (MCF7 [1]): > 50 µM
IC50 (A549): 20.7 µM
IC50 (DU-145): 20.6 µM

CCc1ccc(NC(=S)N(Cc2ccc(OC)c(OC)c2)n2cnnc2)cc1
IC50 (B16-F10): 22.9 µM
IC50 (MDA-MB-231): > 50 µM
IC50 (MCF7 [1]): > 50 µM
IC50 (A549): 28.4 µM
IC50 (DU-145): > 50 µM

COc1ccc(OC)c(CN(C(=S)NC2CCCCC2)n2cnnc2)c1
IC50 (B16-F10): 39.5 µM
IC50 (MDA-MB-231): > 50 µM
IC50 (MCF7 [1]): > 50 µM
IC50 (A549): 21.5 µM
IC50 (DU-145): 29.8 µM

O=c1[nH]cc(F)c(=O)[nH]1 [FLUOROURACIL]
IC50 (MCF7 [1]): 16.7 µM
IC50 (DU-145): 39.2 µM

O=C(NCc1ccccc1)N(Cc1ccccn1)n1cnnc1
IC50 (B16-F10): 31 µM
IC50 (MDA-MB-231): > 50 µM
IC50 (MCF7 [1]): > 50 µM
IC50 (A549): 22 µM
IC50 (DU-145): 21.2 µM

Cc1ccsc1CN(C(=O)Nc1ccccc1)n1cnnc1
IC50 (B16-F10): 31.1 µM
IC50 (MDA-MB-231): > 50 µM
IC50 (MCF7 [1]): > 50 µM
IC50 (A549): 22.1 µM
IC50 (DU-145): > 50 µM

N#Cc1ccc(CN(C(=S)Nc2cc(C(F)(F)F)cc(C(F)(F)F)c2)n2cnnc2)cc1
IC50 (B16-F10): 4.51 µM
Activity (MCF7 [2]): Active
Activity (MCF7 [3]): 9.63%
Activity (MCF7 [4]): Active
Activity (MCF7 [5]): 1.18%
Activity (MCF7 [6]): 9.63%
Activity (MCF7 [7]): Active
IC50 (L132): 15.2 µM
IC50 (MDA-MB-231): 9.28 µM
Activity (MCF7 [8]): Active
Activity (MCF7 [9]): 62.98%
Activity (MCF7 [10]): 61.18%
Activity (MCF7 [11]): Active
Activity (MCF7 [12]): Dose-dependent effect
Activity (MCF7 [13]): 62.98%
Activity (MCF7 [14]): 3.57%
Activity (MCF7 [15]): Active
Activity (MCF7 [16]): 2.78%
inhibition (MCF7 [17]): Dose-dependent effect
Activity (MCF7 [18]): 7.53%
Activity (MCF7 [19]): Dose-dependent effect
Activity (MCF7 [20]): Active
selectivity ratio [21]: 2
Activity (MCF7 [22]): 69.97%
IC50 (MCF7 [1]): 7.22 µM
Activity (MCF7 [23]): 24.61%
Activity (MCF7 [24]): 44.86%
Activity (MCF7 [25]): 10.13%
IC50 (A549): 9.39 µM
Activity (MCF7 [26]): 24.61%
Activity (MCF7 [27]): 11.33%
Activity (MCF7 [28]): 14.34%
Activity (MCF7 [29]): 2.78%
Activity (MCF7 [30]): 25.01%
Activity (MCF7 [31]): 9.26%
Activity (MCF7 [32]): Active
IC50 (DU-145): 11.8 µM
Activity (MCF7 [33]): 38.35%

From ChEMBL document CHEMBL4118131, “Synthesis of 1,2,4-triazole-linked urea/thiourea conjugates as cytotoxic and apoptosis inducing agents” (Bioorg Med Chem Lett, 2018)
